The target of test [1] is T1, AF-Est2 (Archaeoglobus fulgidus, UniProt O28735).
T1 construct: gene AF_1537; full-length, no stop codon, C-terminal 6xHis tag (pET24d, plasmid pWUR365), E. coli BL21-CodonPlus(DE3)-RIPL; tag kept
The test can be described thus: p-nitrophenol release at […] nm, microplate, Michaelis-Menten fit. Type of test: biochemical. The note with it: 50 mM Tris-HCl pH 7.5, 30 °C; enzyme carries co-purified CoA.

For test [2], the target named is T1, AF-Est2. The test can be described thus: X-ray crystal structure, […] Å. The test is classed as binding. The settings on record: co-purified from expression host, not added; full occupancy; groove near active site, pantetheine in alcohol pocket.
The target of test [3] is T1, AF-Est2. Kind of test: phenol red pH-indicator assay at […] nm, Michaelis-Menten fit. Type of test: biochemical. The note with it: 1 mM HEPES pH 8.0; kcat is that at 70 °C (one KM printed for 70, 50 and 30 °C).

The text below walks through data of paper PMC4861933, “Structural and biochemical characterisation of Archaeoglobus fulgidus esterase reveals a bound CoA molecule in the vicinity of the active site” (Scientific Reports, 2016).

T1 sequence (O28735 entry or part of it): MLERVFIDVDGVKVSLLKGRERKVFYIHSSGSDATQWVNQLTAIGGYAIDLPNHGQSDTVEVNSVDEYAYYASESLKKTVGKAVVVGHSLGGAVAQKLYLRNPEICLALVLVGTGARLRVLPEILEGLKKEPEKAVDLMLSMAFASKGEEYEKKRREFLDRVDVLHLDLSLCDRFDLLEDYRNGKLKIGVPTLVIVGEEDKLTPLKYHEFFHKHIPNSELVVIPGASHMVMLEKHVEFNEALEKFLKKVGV

On to `CC(=O)Oc1ccc([N+](=O)[O-])cc1` [C2, pNP-acetate], for which the Michaelis constant (Km) in test [1] turned out to be 620 ± 10 µM.
Regarding `CCC(=O)Oc1ccc([N+](=O)[O-])cc1` [C3, pNP-propionate], the Km in test [1] is 254 ± 8 µM.
Same read-out and setting: the figure for `CCCC(=O)Oc1ccc([N+](=O)[O-])cc1` [C4, pNP-butyrate] is 92 ± 3 µM; for `CCCCC(=O)Oc1ccc([N+](=O)[O-])cc1` [C5, pNP-valerate] it is 19 ± 1 µM.
For `CCCCCCCC(=O)Oc1ccc([N+](=O)[O-])cc1` [C8, pNP-caprylate], the Michaelis constant (Km) in test [1] was found to be 120 ± 10 µM.
Consider `CC(C)(COP(=O)(O)OP(=O)(O)OC[C@H]1O[C@@H](n2cnc3c(N)ncnc32)[C@H](O)[C@@H]1OP(=O)(O)O)[C@@H](O)C(=O)NCCC(=O)NCCS` [CoA], for which the “X-ray crystal structure, 1.4 Å” value in test [2] is “confirmed the full occupancy of this CoA ligand in the AF-Est2 structure”.
For the compound `COC(=O)c1ccc(C)cc1` [methyl p-toluate], in test [3], the Michaelis constant (Km) worked out at 1500 ± 100 µM.
